Measurements from PubChem BioAssay (NCI).
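Grown in 96-well plates, cells were treated for 48 hours with each compound at five concentrations. Insufficient inhibition: endpoint recorded as highest concentration tested. At the GI50, growth is halved. TGI is the concentration that stops growth completely.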

system: A549 NSCLC; assay: NCI-60 cell line screen, 48 h

SMILES | TGI | GI50
Cc1cc(N(CCC#N)CCC#N)ccc1/C(N=Nc1ccc(C(=O)O)cc1)=N\NC(=O)c1cc(Cl)ccc1O | > 100 µM | 
COc1ccc(-c2nc(/C=N/Nc3cc(C)nc4ccc(Cl)cc34)c(C)o2)cc1 | 3.32 µM | 1.73 µM

system: SF-295 CNS; assay: NCI-60 cell line screen, 48 h

SMILES | GI50 | TGI
O=c1oc(Cl)c(Cl)c2ccccc12 | 39.4 µM | > 100 µM
O=C(NCCNCCCNC(=O)c1cc(-c2ccccc2)nc2ccccc12)c1cccc(O)c1O |  | 28.7 µM
Cc1ccc(C(CC(=O)c2ccccc2)C2C(=O)NC(=O)NC2=O)cc1 (stereo not given) | > 100 µM | > 100 µM
Cc1cc(N(CCC#N)CCC#N)ccc1/C(N=Nc1ccc(C(=O)O)cc1)=N\NC(=O)c1cc(Cl)ccc1O |  | 34.7 µM
COc1ccc(-c2nc(/C=N/Nc3cc(C)nc4ccc(Cl)cc34)c(C)o2)cc1 | 1.82 µM | 3.31 µM

system: DU-145 prostate; assay: NCI-60 cell line screen, 48 h

SMILES | GI50 | TGI
O=c1oc(Cl)c(Cl)c2ccccc12 | 18.3 µM | 38.6 µM
O=C(NCCNCCCNC(=O)c1cc(-c2ccccc2)nc2ccccc12)c1cccc(O)c1O |  | > 100 µM
Cc1ccc(C(CC(=O)c2ccccc2)C2C(=O)NC(=O)NC2=O)cc1 (stereo not given) | > 100 µM | > 100 µM
Cc1cc(N(CCC#N)CCC#N)ccc1/C(N=Nc1ccc(C(=O)O)cc1)=N\NC(=O)c1cc(Cl)ccc1O |  | > 100 µM
COc1ccc(-c2nc(/C=N/Nc3cc(C)nc4ccc(Cl)cc34)c(C)o2)cc1 | 1.75 µM | 3.25 µM

system: SK-MEL-2 melanoma; assay: NCI-60 cell line screen, 48 h

SMILES | GI50 | TGI
O=c1oc(Cl)c(Cl)c2ccccc12 | 14.1 µM | 44.1 µM
O=C(NCCNCCCNC(=O)c1cc(-c2ccccc2)nc2ccccc12)c1cccc(O)c1O |  | 15.1 µM
Cc1ccc(C(CC(=O)c2ccccc2)C2C(=O)NC(=O)NC2=O)cc1 (stereo not given) | > 100 µM | > 100 µM
Cc1cc(N(CCC#N)CCC#N)ccc1/C(N=Nc1ccc(C(=O)O)cc1)=N\NC(=O)c1cc(Cl)ccc1O |  | > 100 µM
COc1ccc(-c2nc(/C=N/Nc3cc(C)nc4ccc(Cl)cc34)c(C)o2)cc1 | 10.9 µM | 24.1 µM

system: NCI-H23 lung; assay: NCI-60 cell line screen, 48 h

SMILES | GI50 | TGI
O=c1oc(Cl)c(Cl)c2ccccc12 | 50.5 µM | > 100 µM
O=C(NCCNCCCNC(=O)c1cc(-c2ccccc2)nc2ccccc12)c1cccc(O)c1O |  | 37.8 µM
Cc1ccc(C(CC(=O)c2ccccc2)C2C(=O)NC(=O)NC2=O)cc1 (stereo not given) | > 100 µM | > 100 µM
Cc1cc(N(CCC#N)CCC#N)ccc1/C(N=Nc1ccc(C(=O)O)cc1)=N\NC(=O)c1cc(Cl)ccc1O |  | > 100 µM
COc1ccc(-c2nc(/C=N/Nc3cc(C)nc4ccc(Cl)cc34)c(C)o2)cc1 | 1.99 µM | 4.09 µM

system: HL-60(TB) leukemia; assay: NCI-60 cell line screen, 48 h

SMILES | TGI | GI50
O=C(NCCNCCCNC(=O)c1cc(-c2ccccc2)nc2ccccc12)c1cccc(O)c1O | > 100 µM | 
Cc1ccc(C(CC(=O)c2ccccc2)C2C(=O)NC(=O)NC2=O)cc1 (stereo not given) | > 100 µM | > 100 µM

system: OVCAR-5 ovarian; assay: NCI-60 cell line screen, 48 h

SMILES | GI50 | TGI
O=c1oc(Cl)c(Cl)c2ccccc12 | 18.7 µM | 57.1 µM
O=C(NCCNCCCNC(=O)c1cc(-c2ccccc2)nc2ccccc12)c1cccc(O)c1O |  | 13.9 µM
Cc1ccc(C(CC(=O)c2ccccc2)C2C(=O)NC(=O)NC2=O)cc1 (stereo not given) | > 100 µM | > 100 µM
Cc1cc(N(CCC#N)CCC#N)ccc1/C(N=Nc1ccc(C(=O)O)cc1)=N\NC(=O)c1cc(Cl)ccc1O |  | > 100 µM
COc1ccc(-c2nc(/C=N/Nc3cc(C)nc4ccc(Cl)cc34)c(C)o2)cc1 | 1.68 µM | 3.07 µM

system: SW-620 colon; assay: NCI-60 cell line screen, 48 h

SMILES | GI50 | TGI
O=c1oc(Cl)c(Cl)c2ccccc12 | 19.7 µM | 56.3 µM
O=C(NCCNCCCNC(=O)c1cc(-c2ccccc2)nc2ccccc12)c1cccc(O)c1O |  | > 100 µM
Cc1ccc(C(CC(=O)c2ccccc2)C2C(=O)NC(=O)NC2=O)cc1 (stereo not given) | > 100 µM | > 100 µM
COc1ccc(-c2nc(/C=N/Nc3cc(C)nc4ccc(Cl)cc34)c(C)o2)cc1 | 1.6 µM | 3.2 µM

system: ACHN renal; assay: NCI-60 cell line screen, 48 h

SMILES | GI50 | TGI
O=c1oc(Cl)c(Cl)c2ccccc12 | 16.1 µM | 39.7 µM
O=C(NCCNCCCNC(=O)c1cc(-c2ccccc2)nc2ccccc12)c1cccc(O)c1O |  | 20 µM
Cc1ccc(C(CC(=O)c2ccccc2)C2C(=O)NC(=O)NC2=O)cc1 (stereo not given) | > 100 µM | > 100 µM
Cc1cc(N(CCC#N)CCC#N)ccc1/C(N=Nc1ccc(C(=O)O)cc1)=N\NC(=O)c1cc(Cl)ccc1O |  | > 100 µM
COc1ccc(-c2nc(/C=N/Nc3cc(C)nc4ccc(Cl)cc34)c(C)o2)cc1 | 1.81 µM | 3.2 µM

system: SN12C renal; assay: NCI-60 cell line screen, 48 h

SMILES | GI50 | TGI
O=c1oc(Cl)c(Cl)c2ccccc12 | 14.8 µM | 31.4 µM
O=C(NCCNCCCNC(=O)c1cc(-c2ccccc2)nc2ccccc12)c1cccc(O)c1O |  | 52.6 µM
Cc1ccc(C(CC(=O)c2ccccc2)C2C(=O)NC(=O)NC2=O)cc1 (stereo not given) | > 100 µM | > 100 µM
Cc1cc(N(CCC#N)CCC#N)ccc1/C(N=Nc1ccc(C(=O)O)cc1)=N\NC(=O)c1cc(Cl)ccc1O |  | > 100 µM
COc1ccc(-c2nc(/C=N/Nc3cc(C)nc4ccc(Cl)cc34)c(C)o2)cc1 | 1.8 µM | 3.42 µM

system: MDA-MB-435; assay: NCI-60 cell line screen, 48 h

SMILES | GI50 | TGI
O=c1oc(Cl)c(Cl)c2ccccc12 | 22.3 µM | 45.9 µM
O=C(NCCNCCCNC(=O)c1cc(-c2ccccc2)nc2ccccc12)c1cccc(O)c1O |  | 13.1 µM
Cc1ccc(C(CC(=O)c2ccccc2)C2C(=O)NC(=O)NC2=O)cc1 (stereo not given) | > 100 µM | > 100 µM
Cc1cc(N(CCC#N)CCC#N)ccc1/C(N=Nc1ccc(C(=O)O)cc1)=N\NC(=O)c1cc(Cl)ccc1O |  | > 100 µM
COc1ccc(-c2nc(/C=N/Nc3cc(C)nc4ccc(Cl)cc34)c(C)o2)cc1 | 1.65 µM | 3.07 µM

system: CCRF-CEM leukemia; assay: NCI-60 cell line screen, 48 h

SMILES | TGI | GI50
O=C(NCCNCCCNC(=O)c1cc(-c2ccccc2)nc2ccccc12)c1cccc(O)c1O | > 100 µM | 
Cc1ccc(C(CC(=O)c2ccccc2)C2C(=O)NC(=O)NC2=O)cc1 (stereo not given) | > 100 µM | > 100 µM
Cc1cc(N(CCC#N)CCC#N)ccc1/C(N=Nc1ccc(C(=O)O)cc1)=N\NC(=O)c1cc(Cl)ccc1O | > 100 µM | 

system: SK-MEL-5 melanoma; assay: NCI-60 cell line screen, 48 h

SMILES | GI50 | TGI
O=c1oc(Cl)c(Cl)c2ccccc12 | 16.5 µM | 37 µM
O=C(NCCNCCCNC(=O)c1cc(-c2ccccc2)nc2ccccc12)c1cccc(O)c1O |  | 4.09 µM
Cc1ccc(C(CC(=O)c2ccccc2)C2C(=O)NC(=O)NC2=O)cc1 (stereo not given) | > 100 µM | > 100 µM
Cc1cc(N(CCC#N)CCC#N)ccc1/C(N=Nc1ccc(C(=O)O)cc1)=N\NC(=O)c1cc(Cl)ccc1O |  | > 100 µM
COc1ccc(-c2nc(/C=N/Nc3cc(C)nc4ccc(Cl)cc34)c(C)o2)cc1 | 1.77 µM | 3.17 µM

system: NCI-H460 lung; assay: NCI-60 cell line screen, 48 h

SMILES | GI50 | TGI
O=c1oc(Cl)c(Cl)c2ccccc12 | 55.5 µM | > 100 µM
O=C(NCCNCCCNC(=O)c1cc(-c2ccccc2)nc2ccccc12)c1cccc(O)c1O |  | 41.6 µM
Cc1ccc(C(CC(=O)c2ccccc2)C2C(=O)NC(=O)NC2=O)cc1 (stereo not given) | > 100 µM | > 100 µM
Cc1cc(N(CCC#N)CCC#N)ccc1/C(N=Nc1ccc(C(=O)O)cc1)=N\NC(=O)c1cc(Cl)ccc1O |  | > 100 µM
COc1ccc(-c2nc(/C=N/Nc3cc(C)nc4ccc(Cl)cc34)c(C)o2)cc1 | 1.85 µM | 3.49 µM

system: EKVX NSCLC; assay: NCI-60 cell line screen, 48 h

SMILES | GI50 | TGI
O=c1oc(Cl)c(Cl)c2ccccc12 | 18.8 µM | 44.3 µM
O=C(NCCNCCCNC(=O)c1cc(-c2ccccc2)nc2ccccc12)c1cccc(O)c1O |  | > 100 µM
Cc1ccc(C(CC(=O)c2ccccc2)C2C(=O)NC(=O)NC2=O)cc1 (stereo not given) | > 100 µM | > 100 µM
Cc1cc(N(CCC#N)CCC#N)ccc1/C(N=Nc1ccc(C(=O)O)cc1)=N\NC(=O)c1cc(Cl)ccc1O |  | > 100 µM
COc1ccc(-c2nc(/C=N/Nc3cc(C)nc4ccc(Cl)cc34)c(C)o2)cc1 | 1.82 µM | 3.29 µM
